Results published in article PMC7970304, “The Effects of Apelin and Elabela Ligands on Apelin Receptor Distinct Signaling Profiles” (Frontiers in Pharmacology, 2021).

Columns and labels:
Assay type in all cases: cell-based
[1] = test system: APJ–GRK2 interaction; assay: BRET recruitment of GRK2 to APJ; conditions: for log (τ/KA) / Δlog (τ/KA): APJ-GRK2; for log (τ/KA): Black–Leff operational model; for Δlog (τ/KA): relative to Apelin-13; for Bias factor / Log (Bias): APJ-GRK2 over Ca2+, reference Apelin-13; for Log (Bias): footnote a = statistically insignificant
Protocol: (§1) To detect the potencies of different peptide ligands for APJ in living cells, real-time kinetic bioluminescence resonance energy transfer (BRET) assays were carried out as follows. HEK293 cells were grown to 80–90% confluence in 24-well plates and transiently transfected with various Rluc-, EYFP-, or Venus-tagged constructs ([Chen et al., 2014]; [Liu et al., 2016]). Approximately 36 h after transfection, the long-acting luciferase substrate EnduRen (E6481, Promega, Beijing Biotech Co., Ltd.) was added to each well at a final concentration of 60 μM and cells were incubated for 2 h at 37°C in a 5% CO2 incubator. BRET experiments were carried out using a Mithras LB941 plate reader (Berthold Technologies, Bad Wildbad, Germany) with three filters: a Rluc filter (400–475 nm), a Venus filter (515–575 nm) and an EGFP filter (500–550 nm) ([Liu et al., 2016]; [Ji et al., 2017]). The BRET ratio was calculated as the ratio of the emission at 535 ± 30 nm to that at 485 ± 20 nm. The results are expressed as the mBRET (mBRET = 1,000 × BRET ratio) ([Pfleger et al., 2006a]; [Pfleger et al., 2006b]). We use high glucose as a negative control group.
(§2) HEK293 cells were transiently co-transfected with the designated Rluc and GFP2 or Venus or EYFP-labeled constructs. Twenty-four hours after transfection, the cells were harvested in phenol red free medium containing 5% FCS in HEPES buffer and seeded in 96 well white microplate coated with poly-D-lysine. After 24 h, cells were washed twice in PBS and re-suspended in PBS containing 0.5 mM MgCl2 and 0.1% glucose. Coelenterazine h substrate was added at a final concentration of 5 μM in the total volume of 50 μL/well. Kinetic-response and dose-response curve of the recruitment of GRKs or β-arrestin 1 and β-arrestin 2 or AP2 to the APJ by six peptides measured by BRET. […] The BRET signals between receptor and GRKs/β-arrestin1 and 2/AP2 were recorded at 10 min (GRK2/5) or 15 min (β-arrestin1 and) or 30 min (AP2) after agonist stimulation. We use high glucose as a control group. BRET assays were performed as described previously ([Xue et al., 2018]). […] This signal is defined as the ligand induced BRET ratio.
(§3) The concentration-response data for the ligands in various assays were analyzed to determine the biases of the ligands for G protein dependent signaling or β-arrestin dependent signaling, according to a previously published method ([Kenakin et al., 2012]; [Hager et al., 2016]; [Hothersall et al., 2017]). Briefly, the concentration-response data for each ligand were fitted to the Black–Leff operation model to obtain the values of τ and K A, using the following equation: Response=[A]^nτ^nEm/[A]^nτ^n+([A]KA)^n where [A] is the concentration of the agonist, E m is the maximal response of the system, n is the transducer slope, and K A and τ describe the affinity and efficacy of the agonist, respectively. In the data fitting, the reparametrized form of the equation proposed by [Kenakin et al. (2012)] was used: Response=Em/1+exp{nln[1+exp(β1)/[A]]−nβ2} where β 1 and β 2 are the natural logarithm of K A and τ, respectively, and E m was set to 1. Thus, for each concentration-response curve, a non-linear regression was performed to fit the above equation to give β 1 and β 2 (as well as n). Log (τ/K A) values (“transduction coefficients”) for each ligand vs. each pathway were obtained. […] The ΔΔlog (τ/K A), or Log (Bias), which is the logarithm of the bias factor for a given pathway over a reference pathway (here, intracellular calcium release), was calculated for each ligand as Δlog (τ/K A)–Δlog (τ/K A)Calcium. The 95% confidence interval (CI) was expressed as the mean ± standard error; Log (Bias) values, whose 95% CI crosses 0, were considered statistically insignificant.
(§4) The data were analyzed using GraphPad Prism v5.0. All the data are presented as the mean ± SEM.

[2] = test system: APJ–GRK5 interaction; assay: BRET recruitment of GRK5 to APJ; conditions: for log (τ/KA) / Δlog (τ/KA): GRK5; for log (τ/KA): Black–Leff operational model; for Δlog (τ/KA): relative to Apelin-13; for Bias factor / Log (Bias): GRK5 over Ca2+, reference Apelin-13; for Log (Bias): footnote a = statistically insignificant
Protocol: as §1, §2, §3, §4

[3] = test system: β-arrestin 1–AP2 interaction induced by APJ; assay: BRET interaction of β-arrestin 1 and β2-adaptin (AP2) induced by APJ; conditions: for log (τ/KA) / Δlog (τ/KA): APJ-β-arrestin1-AP2; for log (τ/KA): Black–Leff operational model; for Δlog (τ/KA): relative to Apelin-13; for Bias factor / Log (Bias): APJ-β-arrestin1-AP2 over Ca2+, reference Apelin-13; for Log (Bias): footnote a = statistically insignificant
Protocol: as §1, §2, §3, §4

[4] = test system: β-arrestin 2–AP2 interaction induced by APJ; assay: BRET interaction of β-arrestin 2 and β2-adaptin (AP2) induced by APJ; conditions: for log (τ/KA) / Δlog (τ/KA): APJ-β-arrestin2-AP2; for log (τ/KA): Black–Leff operational model; for Δlog (τ/KA): relative to Apelin-13; for Bias factor / Log (Bias): APJ-β-arrestin2-AP2 over Ca2+, reference Apelin-13; for Log (Bias): footnote a = statistically insignificant
Protocol: as §1, §2, §3, §4

Compound: CSCC[C@H](NC(=O)[C@@H]1CSSC[C@H](NC(=O)[C@H](CC(N)=O)NC(=O)[C@H](Cc2c[nH]cn2)NC(=O)[C@H](CCCCN)NC(=O)[C@H](CCCNC(=N)N)NC(=O)[C@@H](N)CC(C)C)C(=O)N[C@@H](CC(C)C)C(=O)N[C@@H](CCC(N)=O)C(=O)N[C@@H](CCCNC(=N)N)C(=O)N[C@@H](CCCNC(=N)N)C(=O)N1)C(=O)N1CCC[C@H]1C(=O)N[C@@H](CC(C)C)C(=O)N[C@@H](Cc1c[nH]cn1)C(=O)N[C@@H](CO)C(=O)N[C@@H](CCCNC(=N)N)C(=O)N[C@H](C(=O)N1CCC[C@H]1C(=O)N[C@@H](Cc1ccccc1)C(=O)N1CCC[C@H]1C(=O)O)C(C)C [Elabela-21]
- log (τ/KA) [1]: −1.5 ± 0.2
- Δlog (τ/KA) [1]: 0.6 ± 0.3
- Bias factor [1]: 169.0
- Log (Bias) [1]: 2.2 ± 0.4
- log (τ/KA) [2]: −1.9 ± 0.3
- Δlog (τ/KA) [2]: 0.5 ± 0.4
- Bias factor [2]: 124.1
- Log (Bias) [2]: 2.1 ± 0.5
- log (τ/KA) [3]: −1.9 ± 0.1
- Δlog (τ/KA) [3]: −0.5 ± 0.2
- Bias factor [3]: 13.2
- Log (Bias) [3]: 1.1 ± 0.3
- log (τ/KA) [4]: −2.1 ± 0.4
- Δlog (τ/KA) [4]: −1.9 ± 0.5
- Bias factor [4]: 0.5
- Log (Bias) [4]: −0.3 ± 0.6 ^a

Compound: CSCC[C@H](NC(=O)[C@@H](NC(=O)[C@H](CC(C)C)NC(=O)[C@H](CC(N)=O)NC(=O)[C@@H](NC(=O)[C@@H]1CCCN1C(=O)[C@H](CCCNC(=N)N)NC(=O)[C@@H](N)CCC(N)=O)C(C)C)[C@@H](C)O)C(=O)N[C@@H](CCCNC(=N)N)C(=O)N[C@@H](CCCNC(=N)N)C(=O)N[C@@H](CCCCN)C(=O)N[C@@H](CC(C)C)C(=O)N[C@@H](CCCNC(=N)N)C(=O)N[C@@H](CCCCN)C(=O)N[C@@H](Cc1c[nH]cn1)C(=O)N[C@@H](CC(N)=O)C(=O)N[C@H]1CSSC[C@@H](C(=O)N[C@@H](CCSC)C(=O)N2CCC[C@H]2C(=O)N[C@@H](CC(C)C)C(=O)N[C@@H](Cc2c[nH]cn2)C(=O)N[C@@H](CO)C(=O)N[C@@H](CCCNC(=N)N)C(=O)N[C@H](C(=O)N2CCC[C@H]2C(=O)N[C@@H](Cc2ccccc2)C(=O)N2CCC[C@H]2C(=O)O)C(C)C)NC(=O)[C@H](CCCNC(=N)N)NC(=O)[C@H](CCCNC(=N)N)NC(=O)[C@H](CCC(N)=O)NC(=O)[C@H](CC(C)C)NC1=O [Elabela-32]
- log (τ/KA) [1]: −0.8 ± 0.2
- Δlog (τ/KA) [1]: 1.3 ± 0.3
- Bias factor [1]: 1,604.0
- Log (Bias) [1]: 3.2
- Log (Bias) ([1]; listed as ELA-32): 3.2 ± 0.4
- bias over calcium release ([1]; APJ–GRK2): > 1,500 fold
- bias over calcium release ([2]; APJ–GRK5): > 6,000 fold
- log (τ/KA) [2]: −0.3 ± 0.3
- Δlog (τ/KA) [2]: 2.1 ± 0.4
- Bias factor [2]: 8,921.8
- Log (Bias) [2]: 4.0
- Log (Bias) ([2]; listed as ELA-32): 4.0 ± 0.5
- log (τ/KA) [3]: −0.1 ± 0.1
- Δlog (τ/KA) [3]: 1.3 ± 0.2
- Bias factor [3]: 1,580.1
- Log (Bias) [3]: 3.2
- Log (Bias) ([3]; listed as ELA-32): 3.2 ± 0.3
- bias over calcium release ([3]; β-arrestin 1–AP2): > 1,500 fold
- log (τ/KA) [4]: −2.0 ± 0.4
- Δlog (τ/KA) [4]: −1.8 ± 0.5
- Bias factor [4]: 1.1
- Log (Bias) [4]: 0.0 ± 0.6 ^a
